In patent US11878965B2, “Inhibitors of peptidylarginine deiminases” (Gilead Sciences, Inc., priority 2020, dated 2024):
pIC50: −log10 of the molar value.

Biological target: human PAD4 (Homo sapiens (Human), UniProt Q9UM07)
Assay: In Vitro PAD4 BAEE Biochemical Assay
Conditions: geometric mean of multiple experiments
Outline: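 Recombinant human PAD4 (His-SUMO tag removed, E. coli-expressed), 5 nM, preincubated with compound and 2 mM CaCl2 30 min at 25 °C in MOPS pH 7.6 with DTT; 3 mM BAEE added for 2 h at 25 °C, EDTA stop. Released ammonia detected by o-phthalaldehyde/DTT fluorescence (ex 405, em 535 nm).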

[1] = recombinant PAD4 5 nM, 2 mM calcium chloride, 3 mM BAEE substrate
[2] = human PAD4, BAEE substrate, 5 nM PAD4, 2 mM calcium chloride, 3 mM BAEE

human PAD4, sequence (Q9UM07 2-663): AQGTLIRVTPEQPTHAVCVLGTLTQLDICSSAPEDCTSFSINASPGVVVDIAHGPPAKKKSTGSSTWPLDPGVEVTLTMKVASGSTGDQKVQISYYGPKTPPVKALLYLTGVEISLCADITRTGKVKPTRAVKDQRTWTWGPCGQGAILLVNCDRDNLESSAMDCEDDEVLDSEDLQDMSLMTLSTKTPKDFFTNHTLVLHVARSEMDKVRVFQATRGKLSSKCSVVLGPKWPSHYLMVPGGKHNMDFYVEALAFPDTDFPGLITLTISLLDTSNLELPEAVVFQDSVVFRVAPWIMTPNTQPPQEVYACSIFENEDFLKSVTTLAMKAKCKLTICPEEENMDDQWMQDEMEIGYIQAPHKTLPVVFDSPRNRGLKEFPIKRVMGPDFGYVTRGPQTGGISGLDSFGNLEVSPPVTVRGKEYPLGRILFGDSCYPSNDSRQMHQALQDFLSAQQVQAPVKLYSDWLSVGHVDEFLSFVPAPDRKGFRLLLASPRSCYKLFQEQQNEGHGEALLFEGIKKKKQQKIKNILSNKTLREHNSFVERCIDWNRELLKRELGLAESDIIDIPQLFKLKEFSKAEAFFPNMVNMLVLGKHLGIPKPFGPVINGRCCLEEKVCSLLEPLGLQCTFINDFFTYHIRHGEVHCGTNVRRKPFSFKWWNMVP

Compound | pIC50 [1] | pIC50 [2]
COc1cc(C(=O)N2C[C@H](N)[C@@H]3CC[C@H]2C3)cc2nc(-c3cc4ccc([C@@H](C)NC(=O)[C@@H]5CC5(F)F)nc4n3CC3CC3)n(C)c12 [Example 311, (S)-N-((R)-1-(2-(5-((1S,4R,5R)-4-amino-2-azabicyclo[3.2.1]octane-2-carbonyl)-7-methoxy-1-methyl-1H-benzo[d]imidazol-2-yl)-1-(cyclopropylmethyl)-1H-pyrrolo[2,3-b]pyridin-6-yl)ethyl)-2,2-difluorocyclopropane-1-carboxamide] | 7.17 | 
COc1cc(C(=O)N2C[C@H](N)[C@@H]3CC[C@H]2C3)cc2nc(-c3cc4ccc([C@@H](C)NC(=O)C(C)(C)C)nc4n3CC3CC3)n(C)c12 [Example 221, N-((R)-1-(2-(5-((1S,4R,5R)-4-amino-2-azabicyclo[3.2.1]octane-2-carbonyl)-7-methoxy-1-methyl-1H-benzo[d]imidazol-2-yl)-1-(cyclopropylmethyl)-1H-pyrrolo[2,3-b]pyridin-6-yl)ethyl)pivalamide] |  | 7.21
COc1cc(C(=O)N2C[C@H](N)CCN2C)cc2nc(-c3cc4ccc([C@@H](C)NC(=O)c5ccc(C)nc5C)nc4n3CC3CC3)n(C)c12 [Example 214, N-((R)-1-(2-(5-((R)-5-amino-2-methylhexahydropyridazine-1-carbonyl)-7-methoxy-1-methyl-1H-benzo[d]imidazol-2-yl)-1-(cyclopropylmethyl)-1H-pyrrolo[2,3-b]pyridin-6-yl)ethyl)-2,6-dimethylnicotinamide] |  | 7.00
COc1cc(C(=O)N2[C@@H]3CC[C@@H](N)[C@H]2CC3)cc2nc(-c3cc4ccc(N(C(F)F)S(C)(=O)=O)nc4n3CC3CC3)n(C3CC3)c12 [Example 50, N-(2-(5-((1R,2R,5R)-2-amino-8-azabicyclo[3.2.1]octane-8-carbonyl)-1-cyclopropyl-7-methoxy-1H-benzo[d]imidazol-2-yl)-1-(cyclopropylmethyl)-1H-pyrrolo [2,3-b]pyridin-6-yl)-N-(difluoromethyl) methanesulfonamide] |  | 6.84
Cc1cc2c(cc1C(=O)N1CCC[C@@H](N)C1)nc(-c1cc3ccc(N(C(F)F)S(C)(=O)=O)nc3n1CC1CC1)n2C1CC1 [Example 60, (R)-N-(2-(5-(3-aminopiperidine-1-carbonyl)-1-cyclopropyl-6-methyl-1H-benzo[d]imidazol-2-yl)-1-(cyclopropylmethyl)-1H-pyrrolo[2,3-b]pyridin-6-yl)-N-(difluoromethyl) methanesulfonamide] |  | 5.66
CCN(C(=O)OC)c1ccc2cc(-c3nc4cc(C(=O)N5CCC[C@@H](N)C5)ccc4n3C3CC3)n(CC3CC3)c2n1 [Example 112, (R)-methyl (2-(5-(3-aminopiperidine-1-carbonyl)-1-cyclopropyl-1H-benzo[d]imidazol-2-yl)-1-(cyclopropylmethyl)-1H-pyrrolo [2,3-b]pyridin-6-yl) (ethyl)carbamate] |  | 5.29
COc1cc(C(=O)N2C[C@H](N)[C@@H]3CC[C@H]2C3)cc2nc(-c3cc4ccc([C@@H](C)NC(=O)c5ccccc5Cl)nc4n3CC3CC3)n(C)c12 [Example 293, N-((R)-1-(2-(5-((1S,4R,5R)-4-amino-2-azabicyclo [3.2.1]octane-2-carbonyl)-7-methoxy-1-methyl-1H-benzo[d]imidazol-2-yl)-1-(cyclopropylmethyl)-1H-pyrrolo[2,3-b]pyridin-6-yl)ethyl)-2-chlorobenzamide] | 7.09 | 
COc1cc(C(=O)N2C[C@H](N)CCN2C)cc2nc(-c3cc4ccc([C@@H](C)NC(=O)c5nccc(C(F)(F)F)n5)nc4n3CC3CC3)n(C)c12 [Example 182, N-((R)-1-(2-(5-((R)-5-amino-2-methylhexahydropyridazine-1-carbonyl)-7-methoxy-1-methyl-1H-benzo[d]imidazol-2-yl)-1-(cyclopropylmethyl)-1H-pyrrolo[2,3-b]pyridin-6-yl)ethyl)-4-(trifluoromethyl)pyrimidine-2-carboxamide] |  | 6.98
COc1cc(C(=O)N2C[C@H](N)[C@@H]3CC[C@H]2C3)cc2nc(-c3cc4ccc([C@@H](C)NC(=O)c5ccc(C(F)F)nc5)nc4n3CC3CC3)n(C3CC3)c12 [Example 309, N-((R)-1-(2-(5-((1S,4R,5R)-4-amino-2-azabicyclo[3.2.1]octane-2-carbonyl)-1-cyclopropyl-7-methoxy-1H-benzo[d]imidazol-2-yl)-1-(cyclopropylmethyl)-1H-pyrrolo[2,3-b]pyridin-6-yl)ethyl)-6-(difluoromethyl)nicotinamide] | 6.95 | 
COc1cc(C(=O)N2C[C@H](N)CC[C@@H]2C)cc2nc(-c3cc4ccc(C(=O)N(C)C)nc4n3CC3CC3)n(C)c12 [Example 250, 2-(5-((2S,5R)-5-amino-2-methylpiperidine-1-carbonyl)-7-methoxy-1-methyl-1H-benzo[d]imidazol-2-yl)-1-(cyclopropylmethyl)-N,N-dimethyl-1H-pyrrolo[2,3-b]pyridine-6-carboxamide] |  | 6.06
C[C@@H](NC(=O)C1CCOCC1)c1ccc2cc(-c3nc4cc(C(=O)N5C[C@H](N)[C@@H]6CC[C@H]5C6)cc(F)c4n3C3CC3)n(CC3CC3)c2n1 [Example 304, N-((R)-1-(2-(5-((1S,4R,5R)-4-amino-2-azabicyclo[3.2.1]octane-2-carbonyl)-1-cyclopropyl-7-fluoro-1H-benzo[d]imidazol-2-yl)-1-(cyclopropylmethyl)-1H-pyrrolo[2,3-b]pyridin-6-yl)ethyl)tetrahydro-2H-pyran-4-carboxamide] | 7.31 | 
COc1cc(C(=O)N2CCCC(C)(N)C2)cc2nc(-c3cc4ccc(N(C(F)F)S(C)(=O)=O)nc4n3CC3CC3)n(C)c12 (centres unmarked) [Example 52, N-(2-(5-(3-amino-3-methylpiperidine-1-carbonyl)-7-methoxy-1-methyl-1H-benzo[d]imidazol-2-yl)-1-(cyclopropylmethyl)-1H-pyrrolo [2,3-b]pyridin-6-yl)-N-(difluoromethyl) methanesulfonamide] |  | 4.90
COc1cc(C(=O)N2CC[C@@H]3OCCN[C@@H]3C2)cc2nc(-c3cc4ccc(N(C(F)F)S(C)(=O)=O)nc4n3CC3CC3)n(C3CC3)c12 [Example 69, N-(2-(1-cyclopropyl-7-methoxy-5-((4aR,8aS)-octahydro-2H-pyrido[4,3-b][1,4]oxazine-6-carbonyl)-1H-benzo[d]imidazol-2-yl)-1-(cyclopropylmethyl)-1H-pyrrolo[2,3-b]pyridin-6-yl)-N-(difluoromethyl) methanesulfonamide] |  | 4.30
COc1cc(C(=O)N2C[C@H](N)[C@@H]3CC[C@H]2C3)cc2nc(-c3cc4ccc([C@@H](C)NC(=O)C5(C(F)F)CC5)nc4n3CC3CC3)n(C)c12 [Example 324, N-((R)-1-(2-(5-((1S,4R,5R)-4-amino-2-azabicyclo[3.2.1]octane-2-carbonyl)-7-methoxy-1-methyl-1H-benzo[d]imidazol-2-yl)-1-(cyclopropylmethyl)-1H-pyrrolo[2,3-b]pyridin-6-yl)ethyl)-1-(difluoromethyl)cyclopropane-1-carboxamide] | 7.09 | 
COc1cc(C(=O)N2CCC[C@@H](N)[C@H]2C)cc2nc(-c3cc4ccc(N(C(F)F)S(C)(=O)=O)nc4n3CC3CC3)n(C)c12 [Example 33, N-(2-(5-((2R,3R)-3-amino-2-methylpiperidine-1-carbonyl)-7-methoxy-1-methyl-1H-benzo[d]imidazol-2-yl)-1-(cyclopropylmethyl)-1H-pyrrolo [2,3-b]pyridin-6-yl)-N-(difluoromethyl) methanesulfonamide] |  | 7.11
COc1cc(C(=O)N2C[C@H](N)CC[C@@H]2C)cc2nc(-c3cc4ccc(-c5c(C)ccc6[nH]ncc56)nc4n3CC3CC3)n(C)c12 [Example 273, ((2S,5R)-5-amino-2-methylpiperidin-1-yl)(2-(1-(cyclopropylmethyl)-6-(5-methyl-1H-indazol-4-yl)-1H-pyrrolo[2,3-b]pyridin-2-yl)-7-methoxy-1-methyl-1H-benzo[d]imidazol-5-yl)methanone] |  | 5.63
C[C@@H](NC(=O)N(C)C)c1ccc2cc(-c3nc4cc(C(=O)N[C@H]5CNCC[C@@H]5F)c(F)cc4n3C)n(CC3CC3)c2n1 [Example 239, 2-(1-(cyclopropylmethyl)-6-((R)-1-(3,3-dimethylureido)ethyl)-1H-pyrrolo[2,3-b]pyridin-2-yl)-6-fluoro-N-((3S,4S)-4-fluoropiperidin-3-yl)-1-methyl-1H-benzo[d]imidazole-5-carboxamide] |  | 6.78
COc1cc(C(=O)N2[C@H]3CC[C@@H]2[C@H](N)C3)cc2nc(-c3cc4ccc([C@@H](C)NC(=O)C(C)(C)C)nc4n3CC3CC3)n(C3CC3)c12 [Example 127, N-((R)-1-(2-(5-((1R,2R,4S)-2-amino-7-azabicyclo[2.2.1]heptane-7-carbonyl)-1-cyclopropyl-7-methoxy-1H-benzo[d]imidazol-2-yl)-1-(cyclopropylmethyl)-1H-pyrrolo[2,3-b]pyridin-6-yl)ethyl)pivalamide] |  | 7.20
COc1cc(C(=O)N2CCC[C@@H](N)C2)cc2nc(-c3cc4ccc(N(C)S(=O)(=O)C(C)C)nc4n3CC3CC3)n(C)c12 [Example 9, (R)-N-(2-(5-(3-aminopiperidine-1-carbonyl)-7-methoxy-1-methyl-1H-benzo[d]imidazol-2-yl)-1-(cyclopropylmethyl)-1H-pyrrolo [2,3-b]pyridin-6-yl)-N-methylpropane-2-sulfonamide] |  | 6.62
COc1cc(C(=O)N2C[C@H](N)CC[C@@H]2C)cc2nc(-c3cc4ccc(-c5c(C)ccnc5-c5sc(C)nc5C)nc4n3CC3CC3)n(C)c12 [Example 269, ((2S,5R)-5-amino-2-methylpiperidin-1-yl)(2-(1-(cyclopropylmethyl)-6-(2-(2,4-dimethylthiazol-5-yl)-4-methylpyridin-3-yl)-1H-pyrrolo[2,3-b]pyridin-2-yl)-7-methoxy-1-methyl-1H-benzo[d]imidazol-5-yl)methanone] |  | 6.49
